Reference: patent US5786372A, “Heteroaryl compounds used as pharmaceuticals” (SmithKline Beecham p.l.c., priority 1992, dated 1998)
Counter-ions that a name gives are not always drawn.

Molecular target: T1, 5-HT4 receptor (Cavia porcellus, UniProt O70528)
T1 construct: Longitudinal muscle-myenteric plexus preparations, approximately 3 cm long, are obtained from the distal colon region; from tissue; host or cells: guinea-pig distal colon, longitudinal muscle-myenteric plexus preparation
Assay: Guinea pig colon 5-HT4 receptor antagonist activity (longitudinal muscle-myenteric plexus, 5-HT evoked contraction)
Conditions: -log concentration of antagonist which reduces the 5-HT evoked contraction by 50%; guinea-pig distal colon; methiothepin 10^-7 M and granisetron 10^-6 M present
Procedure: 5-HT4 RECEPTOR ANTAGONIST ACTIVITY
Male guinea-pigs, weighing 250-400 g are used. Longitudinal muscle-myenteric plexus preparations, approximately 3 cm long, are obtained from the distal colon region. These are suspended under a 0.5 g load in isolated tissue baths containing Krebs solution bubbled with 5% CO2 in O2 and maintained at 37° C. In all experiments, the Krebs solution also contains methiothepin 10^-7 M and granisetron 10^-6 M to block effects at 5-HT1, 5-HT2 and 5-HT3 receptors.
After construction of a simple concentration-response curve with 5-HT, using 30 s contact times and a 15 min dosing cycle, a concentration of 5-HT is selected so as to obtain a contraction of the muscle approximately 40-70% maximum (10^-9 M approx). The tissue is then alternately dosed every 15 min with this concentration of 5-HT and then with an approximately equi-effective concentration of the nicotine receptor stimulant, dimethylphenylpiperazinium (DMPP). After obtaining consistent responses to both 5-HT and DMPP, increasing concentrations of a putative 5-HT4 receptor antagonist are then added to the bathing solution. The effects of this compound are then determined as a percentage reduction of the contractions evoked by 5-HT or by DMPP. […] A compound which reduces the response to 5-HT but not to DMPP is believed to act as a 5-HT4 receptor antagonist.

T1 sequence (O70528 whole entry): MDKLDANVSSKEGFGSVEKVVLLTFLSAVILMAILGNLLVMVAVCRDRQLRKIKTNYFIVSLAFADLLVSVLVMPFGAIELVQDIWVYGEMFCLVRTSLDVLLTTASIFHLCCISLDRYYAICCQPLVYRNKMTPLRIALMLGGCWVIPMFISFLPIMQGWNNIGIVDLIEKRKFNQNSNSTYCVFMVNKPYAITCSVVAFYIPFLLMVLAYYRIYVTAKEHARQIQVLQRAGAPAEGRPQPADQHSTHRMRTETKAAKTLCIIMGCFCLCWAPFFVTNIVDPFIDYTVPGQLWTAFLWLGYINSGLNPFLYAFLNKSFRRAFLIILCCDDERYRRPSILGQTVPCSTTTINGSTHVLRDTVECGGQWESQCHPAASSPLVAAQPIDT

IC50: 0.0631 nM
SMILES: Nc1c(Cl)cc(C(=O)OCC2CCN(CCCO)CC2)c2c1OCCO2 [Example E1, [1-(3Hydroxypropyl)-4-piperidinyl]methyl 8-amino-7-chloro-1,4-benzodioxan-5-carboxylate hydrochloride]
